Several values for one entry are separate records, joined by “and”; a condition that tells them apart may be missing. Identical values can stand only once. Like-named read-outs stand apart in the source and are kept apart here. Marks after values point to notes of the source that are not given here.
Assay: Mouse pharmacokinetics, brain tissue levels (LC-MS/MS)
Assay type: in vivo
Settings: for concentration at 0.5 h: 0.50 h; for half-life: read-out: Half life (t1/2) (converted)
Method: Plasma and brain samples were taken pre-dose and at post dose time points of pre-dose, 15 and 30 minutes, 1, 2, and 8 hours. The pre-dose group was represented by 5 animals, whereas the post-dose groups were represented by 3 animals.
Bioanalysis of mouse plasma samples for compound 20 was conducted by protein precipitation and LC-MS/MS with compound 22 as the internal standard. The method was based on a ‘generic assay’ and some method development was conducted to tailor that assay to the particular compound and internal standard. The eventual non-GLP assay was first tested by analyzing a bioanalytical run with spiked mouse plasma samples. The qualification run passed by the run acceptance criteria (see below). Bioanalysis was then conducted of plasma sample extracts and of brain sample homogenate extracts, using a calibration and quality control samples spiked in mouse plasma. The assay is described below.
Evaluation of pharmacokinetic parameters was conducted by calculation from the mean concentration (n=5 pre-dose, n=3 post-dose) at each time point.

[1] = mouse brain tissue, Table 14, footnote: excluding IRN 12 result
[2] = mouse brain tissue, Table 15, footnote: including IRN 12 result
[3] = mouse, brain homogenate, mouse brain homogenate, read-out: Mean Group Concentration, Homogenate
[4] = mouse, brain, mouse brain tissue, read-out: Mean Group Concentration, Tissue
[5] = mouse, brain, mouse brain tissue, Table 14, footnote: excluding IRN 12 result
[6] = mouse, brain, mouse brain tissue, Table 15, footnote: including IRN 12 result

Q: For `Nc1nc(-c2c(Cl)cc(Cl)c3c2CCO3)c2[nH]ccc2n1` [compound 20, 4-(5,7-Dichloro-2,3-dihydrobenzofuran-4-yl)-5H-pyrrolo[3,2-d]pyrimidin-2-amine], which “Homogenate concentration, individual animals” value (“Homogenate concentration” for short) (mouse brain homogenate, 15 minutes post dose (B_0.25), 0.00 = below LLOQ 0.988 ng/mL) is on record?
A: 0.00 ^a ng/mL and 1250 ng/mL

Q: What about the “Homogenate concentration” value (mouse brain homogenate, 30 minutes post dose (C_0.5)) of the same molecule?
A: 844 ng/mL and 1200 ng/mL

Q: What about the “Homogenate concentration” value (mouse brain homogenate, 1 hour post dose (D_1)) of the same molecule?
A: 859 ng/mL and 789 ng/mL

Q: What about the “Homogenate concentration” value (mouse brain homogenate, 2 hours post dose (E_2)) of the same molecule?
A: 385 ng/mL and 294 ng/mL

Q: What about the “Homogenate concentration” value (mouse brain homogenate, 8 hours post dose (F_8)) of the same molecule?
A: 7.53 ng/mL and 1.83 ng/mL and 1.53 ng/mL

Q: What about the “Mean Group Concentration, Tissue” value (mouse brain tissue, 0.25 h, excluding IRN 12 result) of the same molecule?
A: ^a excluding IRN 12 result: 15772 ng/g.

Q: What about the “Mean Group Concentration, Tissue” value (mouse brain tissue, 0.25 h, incl. IRN 12) of the same molecule?
A: 10515 ^a ng/g

Q: What about the AUC(0-inf) [1] of the same molecule?
A: 22900 ng·h/mL

Q: What about the Kelimination [1] of the same molecule?
A: 0.769 per hour (h^−1)

Q: And the AUC(0-t) (mouse brain tissue, Table 14, footnote: excluding IRN 12 result, read-out: AUC(0-8 h))?
A: 22900 ng·h/mL

Q: What about the Tmax (mouse brain tissue, Table 14, footnote: excluding IRN 12 result, read-out: Tmax) of the same molecule?
A: 15 min

Q: What about the Kelimination [2] of the same molecule?
A: 0.789 per hour (h^−1)

Q: And the Tmax [2]?
A: 15 min (h)

Q: And the “Brain concentration, individual animals” value (mouse brain, 15 minutes post dose (B_0.25), 0.00 = below LLOQ)?
A: 0.00 ^a ng/g and 10870 ng/g

Q: What about the “Brain concentration, individual animals” value (mouse brain, 30 minutes post dose (C_0.5)) of the same molecule?
A: 7371 ng/g and 10480 ng/g

Q: And the “Brain concentration, individual animals” value (mouse brain, 1 hour post dose (D_1))?
A: 7486 ng/g and 6846 ng/g

Q: What about the “Brain concentration, individual animals” value (mouse brain, 2 hours post dose (E_2)) of the same molecule?
A: 3341 ng/g and 2518 ng/g

Q: And the “Brain concentration, individual animals” value (mouse brain, 8 hours post dose (F_8))?
A: 63.0 ng/g and 15.0 ng/g and 12.9 ng/g

Q: And the concentration at 0.25 h (mouse, brain homogenate, mouse brain homogenate, 0.25 h, incl. IRN 12, read-out: Mean Group Concentration, Homogenate)?
A: 1180 ng/mL

Q: And the concentration at 15 min (mouse, brain homogenate, mouse brain homogenate, 15 minutes post dose (B_0.25), 0.00 = below LLOQ 0.988 ng/mL, read-out: Homogenate concentration, individual animals)?
A: 2300 ng/mL

Q: What about the concentration at 0.5 h [3] of the same molecule?
A: 1150 ng/mL

Q: What about the concentration at 30 min (mouse, brain homogenate, mouse brain homogenate, 30 minutes post dose (C_0.5), read-out: Homogenate concentration, individual animals) of the same molecule?
A: 1400 ng/mL

Q: And the concentration at 1 h (mouse, brain homogenate, mouse brain homogenate, 1.00 h, read-out: Mean Group Concentration, Homogenate)?
A: 845 ng/mL

Q: And the concentration at 1 h (mouse, brain homogenate, mouse brain homogenate, 1 hour post dose (D_1), read-out: Homogenate concentration, individual animals)?
A: 888 ng/mL

Q: And the concentration at 2 h (mouse, brain homogenate, mouse brain homogenate, 2.00 h, read-out: Mean Group Concentration, Homogenate)?
A: 363 ng/mL

Q: What about the concentration at 2 h (mouse, brain homogenate, mouse brain homogenate, 2 hours post dose (E_2), read-out: Homogenate concentration, individual animals) of the same molecule?
A: 410 ng/mL

Q: And the concentration at 8 h [3]?
A: 3.63 ng/mL

Q: And the concentration at 0.5 h [4]?
A: 9820 ng/g

Q: What about the concentration at 1 h (mouse, brain, mouse brain tissue, 1.00 h, read-out: Mean Group Concentration, Tissue) of the same molecule?
A: 7280 ng/g

Q: What about the concentration at 2 h (mouse, brain, mouse brain tissue, 2.00 h, read-out: Mean Group Concentration, Tissue) of the same molecule?
A: 3150 ng/g

Q: What about the concentration at 8 h [4] of the same molecule?
A: 30 ng/g

Q: And the Cmax [5]?
A: 10500 ng/g

Q: And the half-life [5]?
A: 54 min

Q: What about the Cmax [6] of the same molecule?
A: 15800 ng/g

Q: And the half-life [6]?
A: 52.8 min

Q: And the concentration at 15 min (mouse, brain, mouse brain, 15 minutes post dose (B_0.25), 0.00 = below LLOQ, read-out: Brain concentration, individual animals)?
A: 20700 ng/g

Q: And the concentration at 30 min (mouse, brain, mouse brain, 30 minutes post dose (C_0.5), read-out: Brain concentration, individual animals)?
A: 11600 ng/g

Q: What about the concentration at 1 h (mouse, brain, mouse brain, 1 hour post dose (D_1), read-out: Brain concentration, individual animals) of the same molecule?
A: 7490 ng/g

Q: And the concentration at 2 h (mouse, brain, mouse brain, 2 hours post dose (E_2), read-out: Brain concentration, individual animals)?
A: 3600 ng/g

From patent publication US10336768B2, “Pyrimidine compounds and methods using the same” (Yuma Therapeutics, Inc., priority 2014, dated 2019)
